According to US7250413B2, “C-25 carbamate rifamycin derivatives with activity against drug-resistant microbes” (Cumbre Pharmaceuticals Inc., priority 2004, dated 2007):
Values after ≈ are worked out from the molar mass of the structure shown. Read-outs that look alike come from different tables or passages of the source.

Legend:
Experiment in all cases: MIC, microbroth dilution
Assay type in all cases: cell-based
[1] = system: Mycobacterium smegmatis ATCC700084; settings: Mycolicibacterium smegmatis, ATCC700084; rifS; Middlebrook Broth plus ADC Enrichment, 37° C.; read-out: MIC
Method: (§1) Representative compounds were assayed for antimicrobial activity as follows: Minimum Inhibitory Concentrations (“MICs”) were determined by the microbroth dilution method as per NCCLS guidelines (National Committee for Clinical Laboratory Standards, 2000), except that all growth incubations were conducted at 37° C. Bacterial cultures were tested in the following bacteriological media: S. aureus, S. epidermidis, and E. coli in Cation-Adjusted Mueller-Hinton Broth, S. pneumoniae in THY Broth supplemented with 1 mg/mL catalase under 5% CO2 atmosphere, S. pyogenes in THY Broth, E. faecalis in BHI Broth, H. influenzae in BHI Broth supplemented with 0.75 μL of 1 mg/mL NAD and 150 μL of 1 mg/ml hematin per 5 mL, and M smegmatis in Middlebrook Broth plus ADC Enrichment.

[2] = system: Enterococcus faecalis ATCC29212
Method: as §1

[3] = system: Staphylococcus aureus ATCC29213
Method: as §1

[4] = rifS, BHI Broth, 37° C., read-out: MIC
[5] = rifS, Cation-Adjusted Mueller-Hinton Broth, 37° C., read-out: MIC

| Structure (SMILES) | MIC [1] | MIC [2, 4] | MIC [3, 5] | MIC [2] | MIC [3] |
| --- | --- | --- | --- | --- | --- |
| CO[C@H]1/C=C/O[C@@]2(C)Oc3c(C)c(O)c4c(c3C2=O)C(=O)C(N2CCOCC2)=C(NC(=O)/C(C)=C\C=C\[C@H](C)[C@@H]2OC(C)(C)O[C@@H]([C@@H](C)[C@H](OC(=O)n3ccnc3)[C@@H]1C)[C@@H]2C)C4=O [Example 4] | 0.063 to 31 µg/mL | 0.25 to 62 µg/mL (≈ 0.286 to 71 µM) | 0.002 to 1.95 µg/mL (≈ 0.00229 to 2.23 µM) | – | – |
| CO[C@H]1/C=C/O[C@@]2(C)Oc3c(C)c(O)c4c(c3C2=O)C(=O)C(N2CCOCC2)=C(NC(=O)/C(C)=C\C=C\[C@H](C)[C@@H]2OC(C)(C)O[C@@H]([C@@H](C)[C@H](OC(=O)n3cc[n+](Cc5ccccc5)c3)[C@@H]1C)[C@@H]2C)C4=O [Example 5, 1-Benzyl-3-(25-O-desacetyl-(carbonyl-cyclic-21,23-(1-methylethylideneacetal) 3-morpholinorifamycin S))-3H-imidazol-1-ium] | 0.063 to 31 µg/mL | 0.25 to 62 µg/mL | 0.002 to 1.95 µg/mL | – | – |
| CO[C@H]1/C=C/O[C@@]2(C)Oc3c(C)c(O)c4c(c3C2=O)C(=O)C(N2CCOCC2)=C(NC(=O)/C(C)=C\C=C\[C@H](C)[C@H](O)[C@@H](C)[C@@H](O)[C@@H](C)[C@H](OC(=O)N2CCN(C)CC2)[C@@H]1C)C4=O [Example 6, 25-O-Desacetyl-(1-carbonyl-4-methyl-piperazine) 3-morpholino rifamycin S] | 0.063 to 31 µg/mL | 0.25 to 62 µg/mL (≈ 0.289 to 71.7 µM) | 0.002 to 1.95 µg/mL (≈ 0.00231 to 2.25 µM) | – | – |
| CO[C@H]1/C=C/O[C@@]2(C)Oc3c(C)c(O)c4c(c3C2=O)C(=O)C(N2CCOCC2)=C(NC(=O)/C(C)=C\C=C\[C@H](C)[C@H](O)[C@@H](C)[C@@H](O)[C@@H](C)[C@H](OC(=O)NCC(C)C)[C@@H]1C)C4=O [Example 7, 25-O-Desacetyl-(1-carbonyl-isobutylamino) 3-morpholino rifamycin S] | 0.063 to 31 µg/mL | 0.25 to 62 µg/mL (≈ 0.298 to 74 µM) | 0.002 to 1.95 µg/mL (≈ 0.00239 to 2.33 µM) | – | – |
| C=CCNC(=O)O[C@H]1[C@H](C)[C@H](O)[C@H](C)[C@@H](O)[C@@H](C)/C=C/C=C(/C)C(=O)NC2=C(N3CCOCC3)C(=O)c3c(c(O)c(C)c4c3C(=O)[C@@](C)(O/C=C/[C@H](OC)[C@H]1C)O4)C2=O [Example 8, 25-O-Desacetyl-(carbonyl-allylamino) 3-morpholino rifamycin S] | 0.063 to 31 µg/mL | 0.25 to 62 µg/mL (≈ 0.304 to 75.4 µM) | 0.002 to 1.95 µg/mL (≈ 0.00243 to 2.37 µM) | – | – |
| CO[C@H]1/C=C/O[C@@]2(C)Oc3c(C)c(O)c4c(c3C2=O)C(=O)C(N2CCOCC2)=C(NC(=O)/C(C)=C\C=C\[C@H](C)[C@H](O)[C@@H](C)[C@@H](O)[C@@H](C)[C@H](OC(=O)NCCN2CCN(C)CC2)[C@@H]1C)C4=O [Example 9, 25-O-Desacetyl-(1-carbonyl-2-(4-methyl-piperazin-1-yl)-ethylamine) 3-morpholino rifamycin S] | 0.063 to 31 µg/mL | 0.25 to 62 µg/mL (≈ 0.275 to 68.3 µM) | 0.002 to 1.95 µg/mL (≈ 0.0022 to 2.15 µM) | – | – |
| CCN(CC)C(=O)O[C@H]1[C@H](C)[C@H](O)[C@H](C)[C@@H](O)[C@@H](C)/C=C/C=C(/C)C(=O)NC2=C(N3CCOCC3)C(=O)c3c(c(O)c(C)c4c3C(=O)[C@@](C)(O/C=C/[C@H](OC)[C@H]1C)O4)C2=O [Example 10, 25-O-Desacetyl-(1-carbonyl-2-diethylamine) 3-morpholino rifamycin S] | 0.063 to 31 µg/mL | 0.25 to 62 µg/mL (≈ 0.298 to 74 µM) | 0.002 to 1.95 µg/mL (≈ 0.00239 to 2.33 µM) | – | – |
| CO[C@H]1/C=C/O[C@@]2(C)Oc3c(C)c(O)c4c(c3C2=O)C(=O)C(N2CCOCC2)=C(NC(=O)/C(C)=C\C=C\[C@H](C)[C@H](O)[C@@H](C)[C@@H](O)[C@@H](C)[C@H](OC(=O)NCCCn2ccnc2)[C@@H]1C)C4=O [Example 11, 25-O-Desacetyl-(1-carbonyl-3-imidazol-1-yl-propylamine) 3-morpholino rifamycin S] | 0.063 to 31 µg/mL | 0.25 to 62 µg/mL (≈ 0.281 to 69.7 µM) | 0.002 to 1.95 µg/mL (≈ 0.00225 to 2.19 µM) | – | – |
| CO[C@H]1/C=C/O[C@@]2(C)Oc3c(C)c(O)c4c(c3C2=O)C(=O)C(N2CCOCC2)=C(NC(=O)/C(C)=C\C=C\[C@H](C)[C@H](O)[C@@H](C)[C@@H](O)[C@@H](C)[C@H](OC(=O)N2CCN(c3ccc(F)cc3)CC2)[C@@H]1C)C4=O [Example 12, 25-O-Desacetyl-(1-carbonyl-1-(4-fluorophenyl)-piperazine) 3-morpholino rifamycin S] | 0.063 to 31 µg/mL | 0.25 to 62 µg/mL (≈ 0.265 to 65.6 µM) | 0.002 to 1.95 µg/mL (≈ 0.00212 to 2.06 µM) | – | – |
| CO[C@H]1/C=C/O[C@@]2(C)Oc3c(C)c(O)c4c(c3C2=O)C(=O)C(N2CCOCC2)=C(NC(=O)/C(C)=C\C=C\[C@H](C)[C@H](O)[C@@H](C)[C@@H](O)[C@@H](C)[C@H](OC(=O)NCc2cccc(C(F)(F)F)c2)[C@@H]1C)C4=O [Example 13, 25-O-Desacetyl-(carbonyl-1-(3-trifluoromethylbenzylamino)) 3-morpholino rifamycin S] | 0.063 to 31 µg/mL | 0.25 to 62 µg/mL (≈ 0.266 to 66 µM) | 0.002 to 1.95 µg/mL (≈ 0.00213 to 2.07 µM) | – | – |
| CO[C@H]1/C=C/O[C@@]2(C)Oc3c(C)c(O)c4c(c3C2=O)C(=O)C(N2CCOCC2)=C(NC(=O)/C(C)=C\C=C\[C@H](C)[C@H](O)[C@@H](C)[C@@H](O)[C@@H](C)[C@H](OC(=O)N2CCCC2)[C@@H]1C)C4=O [Example 14, 25-O-Desacetyl-(carbonyl-1-pyrrolidino) 3-morpholino rifamycin S] | 0.063 to 31 µg/mL | 0.25 to 62 µg/mL (≈ 0.299 to 74.2 µM) | 0.002 to 1.95 µg/mL (≈ 0.00239 to 2.33 µM) | – | – |
| CO[C@H]1/C=C/O[C@@]2(C)Oc3c(C)c(O)c4c(c3C2=O)C(=O)C(N2CCOCC2)=C(NC(=O)/C(C)=C\C=C\[C@H](C)[C@H](O)[C@@H](C)[C@@H](O)[C@@H](C)[C@H](OC(=O)NCc2ccccc2)[C@@H]1C)C4=O [Example 15, 25-O-Desacetyl (carbonyl-benzyl) 3-morpholino rifamycin S] | 0.063 to 31 µg/mL | 0.25 to 62 µg/mL (≈ 0.287 to 71.1 µM) | 0.002 to 1.95 µg/mL (≈ 0.00229 to 2.24 µM) | – | – |
| CO[C@H]1/C=C/O[C@@]2(C)Oc3c(C)c(O)c4c(c3C2=O)C(=O)C(N2CCOCC2)=C(NC(=O)/C(C)=C\C=C\[C@H](C)[C@H](O)[C@@H](C)[C@@H](O)[C@@H](C)[C@H](OC(=O)N2CCN(c3cc5c(cc3F)c(=O)c(C(=O)O)cn5C3CC3)CC2)[C@@H]1C)C4=O [Example 16, 25-O-Desacetyl-(4-carbonyl-1-cyclopropyl-6-fluoro-4-oxo-7-piperazin-1-yl-1,4-dihydro-quinoline-3-carboxylic acid) 3-morpholino rifamycin S] | 0.063 to 31 µg/mL | 0.25 to 62 µg/mL (≈ 0.228 to 56.6 µM) | 0.002 to 1.95 µg/mL (≈ 0.00182 to 1.78 µM) | – | – |
| CO[C@H]1/C=C/O[C@@]2(C)Oc3c(C)c(O)c4c(c3C2=O)C(=O)C(N2CCOCC2)=C(NC(=O)/C(C)=C\C=C\[C@H](C)[C@H](O)[C@@H](C)[C@@H](O)[C@@H](C)[C@H](OC(=O)N2CCN(c3c(F)cc5c(=O)c(C(=O)O)cn(C6CC6)c5c3Cl)CC2)[C@@H]1C)C4=O [Example 17, 25-O-Desacetyl-(8-chloro-1-cyclopropyl-7-[4-(1-carbonyl)-piperazin-1-yl]-6-fluoro-4-oxo-1,4-dihydro-quinoline-3-carboxylic acid) 3-morpholino rifamycin S] | 0.063 to 31 µg/mL | 0.25 to 62 µg/mL (≈ 0.221 to 54.8 µM) | 0.002 to 1.95 µg/mL (≈ 0.00177 to 1.72 µM) | – | – |
| CO[C@H]1/C=C/O[C@@]2(C)Oc3c(C)c(O)c4c(c3C2=O)C(=O)C(N2CCOCC2)=C(NC(=O)/C(C)=C\C=C\[C@H](C)[C@H](O)[C@@H](C)[C@@H](O)[C@@H](C)[C@H](OC(=O)NCCc2ccccn2)[C@@H]1C)C4=O [Example 18, 25-O-Desacetyl-(1-carbonyl-(2-pyridin-2-yl-ethylamine)) 3-morpholino rifamycin S] | 0.063 to 31 µg/mL | 0.25 to 62 µg/mL (≈ 0.282 to 69.9 µM) | 0.002 to 1.95 µg/mL (≈ 0.00225 to 2.2 µM) | – | – |
| CO[C@H]1/C=C/O[C@@]2(C)Oc3c(C)c(O)c4c(c3C2=O)C(=O)C(N2CCOCC2)=C(NC(=O)/C(C)=C\C=C\[C@H](C)[C@H](O)[C@@H](C)[C@@H](O)[C@@H](C)[C@H](OC(=O)NCCc2cccs2)[C@@H]1C)C4=O [Example 19, 25-O-Desacetyl-(1-carbonyl-2-thiophen-2-yl-ethylamine) 3-morpholino rifamycin S] | 0.063 to 31 µg/mL | 0.25 to 62 µg/mL (≈ 0.28 to 69.5 µM) | 0.002 to 1.95 µg/mL (≈ 0.00224 to 2.19 µM) | – | – |
| CO[C@H]1/C=C/O[C@@]2(C)Oc3c(C)c(O)c4c(c3C2=O)C(=O)C(N2CCOCC2)=C(NC(=O)/C(C)=C\C=C\[C@H](C)[C@H](O)[C@@H](C)[C@@H](O)[C@@H](C)[C@H](OC(=O)NCCO)[C@@H]1C)C4=O [Example 20, 25-O-Desacetyl-(1-carbonyl-2-aminoethanol) 3-morpholino rifamycin S] | 0.063 to 31 µg/mL | 0.25 to 62 µg/mL (≈ 0.303 to 75.1 µM) | 0.002 to 1.95 µg/mL (≈ 0.00242 to 2.36 µM) | – | – |
| CO[C@H]1/C=C/O[C@@]2(C)Oc3c(C)c(O)c4c(c3C2=O)C(=O)C(N2CCOCC2)=C(NC(=O)/C(C)=C\C=C\[C@H](C)[C@H](O)[C@@H](C)[C@@H](O)[C@@H](C)[C@H](OC(=O)NCc2cccc3ccccc23)[C@@H]1C)C4=O [Example 23, 25-O-Desacetyl-(carbonyl-naphthalen-1-ylmethyl-amino) 3-morpholino rifamycin S] | – | – | – | 0.25 to 62 µg/mL (≈ 0.271 to 67.2 µM) | 0.002 to 1.95 µg/mL (≈ 0.00217 to 2.11 µM) |
| COc1cncc(NC(=O)c2ccc(N3CCNCC3)c(C(F)(F)F)c2)c1 [Example 52, N-(5-Methoxy-pyridin-3-yl)-4-piperazin-1-yl-3-trifluoromethyl-benzamide] | – | – | – | 0.25 to 62 µg/mL (≈ 0.657 to 163 µM) | 0.002 to 1.95 µg/mL (≈ 0.00526 to 5.13 µM) |
| CO[C@H]1/C=C/O[C@@]2(C)Oc3c(C)c(O)c4c(c3C2=O)C(=O)C(N2CCOCC2)=C(NC(=O)/C(C)=C\C=C\[C@H](C)[C@@H]2OC(C)(C)O[C@@H]([C@@H](C)[C@H](OC(=O)N3CCC(=O)CC3)[C@@H]1C)[C@@H]2C)C4=O [Example 54, 25-O-Desacetyl-(carbonyl-N-(4-piperidone)) cyclic-21,23-(1-methylethylideneacetal) 3-morpholino rifamycin S] | – | – | – | 0.25 to 62 µg/mL (≈ 0.277 to 68.6 µM) | 0.002 to 1.95 µg/mL (≈ 0.00221 to 2.16 µM) |
| CO[C@H]1/C=C/O[C@@]2(C)Oc3c(C)c(O)c4c(c3C2=O)C(=O)C(N2CCOCC2)=C(NC(=O)/C(C)=C\C=C\[C@H](C)[C@@H]2OC(C)(C)O[C@@H]([C@@H](C)[C@H](OC(=O)N3CCC(=O)C3)[C@@H]1C)[C@@H]2C)C4=O [Example 61] | – | – | – | 0.25 to 62 µg/mL (≈ 0.281 to 69.7 µM) | 0.002 to 1.95 µg/mL (≈ 0.00225 to 2.19 µM) |
